From doi:10.1101/252742v1 (bioRxiv, 2018)

Experiments:
Chk1, Chk2, H2AX = test: DNA damage response effector activation by western blot; format: cell-based, human; conditions: UM-SCC47 or MDA-MB-231 cells, 30 μM peptide up to 6 hr
[1] = Stability of peptide incubated in human plasma; format: in vitro ADME; conditions: incubated in PBS or human plasma for up to 72h at 37°C, then tested for activity
[2] = Plasma pharmacokinetics in mice; format: in vivo; conditions: single intravenous (i.v.) injection of 0.597 mg/kg
HaCaT keratinocytes = test: Cell cycle analysis by flow cytometry; format: cell-based, human; conditions: 30 uM peptide, 16 hr
p38MAPK = p38MAPK activation; format: cell-based, human; conditions: NOKs, 30 μM peptide, 15 min to 16 hr
PCNA = test: DNA-bound PCNA staining on chromatin; format: cell-based, human; conditions: UM-SCC47, detergent-extracted after 3 hr treatment with 30 μM peptide
UM-SCC47 cells [3] = test: Cell cycle analysis by flow cytometry; format: cell-based, human; conditions: UM-SCC47, 30 uM peptide
NOKs and MCF10A cells = test: DNA synthesis by EdU incorporation, non-tumorigenic cells; format: cell-based, human; conditions: 30 μM peptide for 1, 3 or 6 hr (up to 16 hr), then EdU 45 min
UM-SCC47 cells [4] = format: cell-based, human; conditions: UM-SCC47, 30 μM peptide for 3 hr, EdU for the last 45 min
[5] = system: normal oral keratinocytes (NOKs), human tonsillar epithelial cells (HTEs), HaCaT keratinocytes and MCF10A cells; test: Cell proliferation assay; format: cell-based; conditions: 0, 3, 10 or 30 μM peptide, four-day treatment; cell number as % of untreated
c-Abl = c-Abl activity; format: cell-based, human; conditions: UM-SCC47, 30 μM peptide for 3 hr

Q: What does the source list for SSTNEGFR?
A: activation of DNA damage response effectors (Chk1, Chk2, γH2AX) (Chk1, Chk2, H2AX): fails to activate Chk1 or Chk2; stability in human plasma [1]: remarkably stable; half-life in plasma [2]: ~ 42 hr; cells in G1 (HaCaT keratinocytes): 36.6%; cells in S (HaCaT keratinocytes): 57.0%; p38MAPK activation in non-transformed cells (p38MAPK): fail to activate p38MAPK; PCNA retention on chromatin (PCNA): loss of PCNA; cells in G1 (UM-SCC47 cells [3]; 3 hr): 53.1%; cells in G2 (UM-SCC47 cells [3]; 3 hr): 0.0%; cells in S (UM-SCC47 cells [3]; 3 hr): 46.9%; cells in G1 (UM-SCC47 cells [3]; 16 hr): 48.5%; cells in G2 (UM-SCC47 cells [3]; 16 hr): 1.7%; cells in S (UM-SCC47 cells [3]; 16 hr): 49.8%; DNA synthesis (EdU incorporation) (NOKs and MCF10A cells): no inhibition of DNA synthesis; EdU incorporation (UM-SCC47 cells [4]): near complete loss of EdU incorporation; growth of non-tumorigenic cells [5]: not affected; c-Abl activity (pY245, pY412) (c-Abl): inactivates c-Abl
